In patent US10844077B2, “Thiazolyl-containing compounds for treating proliferative diseases” (Dana-Farber Cancer Institute, Inc., priority 2014, dated 2020):
Values joined by “and” are separate entries in the source; they are usually repeats but may differ in a detail not shown here. Equal values may be shown once. Read-outs that look alike come from different tables or passages of the source.

What was measured:
Type in all cases: cell-based
kinases in BCWM.1 cells [1] = target: kinases in BCWM.1 cells (Homo sapiens, UniProt Q04759); settings: PKCt; ATP Loop; 1 μM, 90 min; GF
Experimental: (§1) The cells were harvested and lysed. […] Bound kinases were identified and quantitated by ACTIVX as described in Patricelli et al., Biochemistry, 2007, 46(2): 350-358. The compounds were tested in duplicates against duplicate or quadruplicate control samples.

kinases in BCWM.1 cells [2] = target: kinases in BCWM.1 cells (Homo sapiens, UniProt Q13164); settings: Erk5; Lys2; 1 μM; GF
Experimental: as §1

kinases in BCWM.1 cells [3] = target: kinases in BCWM.1 cells (Homo sapiens, UniProt Q9UK32); settings: RSK4 domain1; Lys2; 1 μM, 90 min; GF
Experimental: as §1

kinases in BCWM.1 cells [4] = target: kinases in BCWM.1 cells (Homo sapiens, UniProt Q96L34); settings: MARK4; Lys2; 1 μM; GF
Experimental: as §1

kinases in BCWM.1 cells [5] = target: kinases in BCWM.1 cells (Homo sapiens, UniProt Q86UX6); settings: YANK3; Lys2; 1 μM, 90 min; GF
Experimental: as §1

kinases in BCWM.1 cells [6] = target: kinases in BCWM.1 cells (Homo sapiens, UniProt P07332); settings: FES; Lys1; 1 μM; GF
Experimental: as §1

kinases in BCWM.1 cells [7] = target: kinases in BCWM.1 cells (Homo sapiens, UniProt Q16584); settings: MLK3; Lys2; 1 μM; GF
Experimental: as §1

kinases in BCWM.1 cells [8] = target: kinases in BCWM.1 cells (Homo sapiens, UniProt Q5S007); settings: LRRK2; Lys2; 1 μM; GF
Experimental: as §1

kinases in BCWM.1 cells [9] = target: kinases in BCWM.1 cells (Homo sapiens, UniProt O95382); settings: MAP3K6; Lys2; 1 μM; GF
Experimental: as §1

kinases in BCWM.1 cells [10] = target: kinases in BCWM.1 cells (Homo sapiens, UniProt P23743); settings: DGKA; ATP; 1 μM; GF
Experimental: as §1

kinases in BCWM.1 cells [11] = target: kinases in BCWM.1 cells (Homo sapiens, UniProt O94804); settings: LOK; Lys2; 1 μM; GF
Experimental: as §1

kinases in BCWM.1 cells [12] = target: kinases in BCWM.1 cells (Homo sapiens, UniProt Q9Y2K2); settings: QSK; Lys2; 1 μM, 90 min; GF
Experimental: as §1

kinases in BCWM.1 cells [13] = target: kinases in BCWM.1 cells (Homo sapiens, UniProt P78356); settings: PIP4K2B; ATP; 1 μM, 90 min; GF
Experimental: as §1

kinases in BCWM.1 cells [14] = target: kinases in BCWM.1 cells (Homo sapiens, UniProt P09769); settings: FGR; Activation Loop; 1 μM; GF
Experimental: as §1

kinases in BCWM.1 cells [15] = target: kinases in BCWM.1 cells (Homo sapiens, UniProt P41279); settings: COT; ATP Loop; 1 μM; GF
Experimental: as §1

kinases in BCWM.1 cells [16] = target: kinases in BCWM.1 cells (Homo sapiens, UniProt Q8IVH8); settings: KHS2; Lys1; 1 μM; GF
Experimental: as §1

kinases in BCWM.1 cells [17] = target: kinases in BCWM.1 cells (Homo sapiens, UniProt P31749); settings: AKT1; ATP Loop; 1 μM; GF
Experimental: as §1

kinases in BCWM.1 cells [18] = target: kinases in BCWM.1 cells (Homo sapiens, UniProt P28482); settings: Erk2; Lys2; 1 μM; GF
Experimental: as §1

kinases in BCWM.1 cells [19] = target: kinases in BCWM.1 cells (Homo sapiens, UniProt Q96RR4); settings: CaMKK2; Lys2; 1 μM; GF
Experimental: as §1

kinases in BCWM.1 cells [20] = target: kinases in BCWM.1 cells (Homo sapiens, UniProt P51956); settings: NEK3; Activation Loop; 1 μM, 90 min; GF
Experimental: as §1

kinases in BCWM.1 cells [21] = target: kinases in BCWM.1 cells (Homo sapiens, UniProt P49761); settings: CLK3; ATP Loop; 1 μM; GF
Experimental: as §1

kinases in BCWM.1 cells [22] = target: kinases in BCWM.1 cells (Homo sapiens, UniProt O75676); settings: MSK2 domain1; Lys2; 1 μM; GF
Experimental: as §1

kinases in BCWM.1 cells [23] = target: kinases in BCWM.1 cells (Homo sapiens, UniProt Q5TCX8); settings: MLK4; Lys2; 1 μM; GF
Experimental: as §1

kinases in BCWM.1 cells [24] = target: kinases in BCWM.1 cells (Homo sapiens, UniProt P06239); settings: LCK; Activation Loop; 1 μM; GF
Experimental: as §1

kinases in BCWM.1 cells [25] = target: kinases in BCWM.1 cells (Homo sapiens, UniProt Q00535); settings: CDK5; Lys2; 1 μM; GF
Experimental: as §1

kinases in BCWM.1 cells [26] = target: kinases in BCWM.1 cells (Homo sapiens, UniProt Q13163); settings: MAP2K5; Lys2; 1 μM; GF
Experimental: as §1

kinases in BCWM.1 cells [27] = target: kinases in BCWM.1 cells (Homo sapiens, UniProt Q9Y6E0); settings: MST3; Lys2; 1 μM; GF
Experimental: as §1

kinases in BCWM.1 cells [28] = target: kinases in BCWM.1 cells (Homo sapiens, UniProt P49840); settings: GSK3A; Lys2; 1 μM; GF
Experimental: as §1

kinases in BCWM.1 cells [29] = target: kinases in BCWM.1 cells (Homo sapiens, UniProt Q99759); settings: MAP3K3; Lys1; 1 μM; GF
Experimental: as §1

kinases in BCWM.1 cells [30] = target: kinases in BCWM.1 cells (Homo sapiens, UniProt Q13418); settings: ILK, 1 μM, GF
Experimental: as §1

kinases in BCWM.1 cells (Homo sapiens, UniProt P49840), sequence (P49840 2-483 limits assumed): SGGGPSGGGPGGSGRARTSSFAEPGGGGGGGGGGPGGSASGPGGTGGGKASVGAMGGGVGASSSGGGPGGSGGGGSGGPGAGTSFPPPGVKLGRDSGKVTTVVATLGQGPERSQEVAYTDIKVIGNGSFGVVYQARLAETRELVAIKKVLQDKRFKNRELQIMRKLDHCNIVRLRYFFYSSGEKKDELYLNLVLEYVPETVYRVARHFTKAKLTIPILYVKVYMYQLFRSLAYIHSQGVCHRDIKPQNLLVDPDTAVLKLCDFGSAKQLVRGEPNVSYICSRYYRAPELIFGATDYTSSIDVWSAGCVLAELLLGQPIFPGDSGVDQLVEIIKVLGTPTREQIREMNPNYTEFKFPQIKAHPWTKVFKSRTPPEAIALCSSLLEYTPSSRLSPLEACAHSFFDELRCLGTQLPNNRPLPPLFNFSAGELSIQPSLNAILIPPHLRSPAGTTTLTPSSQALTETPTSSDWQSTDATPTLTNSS
kinases in BCWM.1 cells (Homo sapiens, UniProt P28482), sequence (P28482 2-360 limits assumed): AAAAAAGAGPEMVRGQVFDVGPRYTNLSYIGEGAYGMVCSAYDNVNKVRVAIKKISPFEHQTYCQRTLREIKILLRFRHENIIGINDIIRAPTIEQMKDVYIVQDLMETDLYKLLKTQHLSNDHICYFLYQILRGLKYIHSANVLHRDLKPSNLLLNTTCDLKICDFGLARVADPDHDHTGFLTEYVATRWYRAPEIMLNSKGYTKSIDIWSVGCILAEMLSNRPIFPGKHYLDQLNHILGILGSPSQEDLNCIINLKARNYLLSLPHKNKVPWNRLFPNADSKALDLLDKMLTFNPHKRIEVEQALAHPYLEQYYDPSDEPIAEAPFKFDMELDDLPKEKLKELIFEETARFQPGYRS
kinases in BCWM.1 cells (Homo sapiens, UniProt Q13164), sequence (Q13164 2-816 limits assumed): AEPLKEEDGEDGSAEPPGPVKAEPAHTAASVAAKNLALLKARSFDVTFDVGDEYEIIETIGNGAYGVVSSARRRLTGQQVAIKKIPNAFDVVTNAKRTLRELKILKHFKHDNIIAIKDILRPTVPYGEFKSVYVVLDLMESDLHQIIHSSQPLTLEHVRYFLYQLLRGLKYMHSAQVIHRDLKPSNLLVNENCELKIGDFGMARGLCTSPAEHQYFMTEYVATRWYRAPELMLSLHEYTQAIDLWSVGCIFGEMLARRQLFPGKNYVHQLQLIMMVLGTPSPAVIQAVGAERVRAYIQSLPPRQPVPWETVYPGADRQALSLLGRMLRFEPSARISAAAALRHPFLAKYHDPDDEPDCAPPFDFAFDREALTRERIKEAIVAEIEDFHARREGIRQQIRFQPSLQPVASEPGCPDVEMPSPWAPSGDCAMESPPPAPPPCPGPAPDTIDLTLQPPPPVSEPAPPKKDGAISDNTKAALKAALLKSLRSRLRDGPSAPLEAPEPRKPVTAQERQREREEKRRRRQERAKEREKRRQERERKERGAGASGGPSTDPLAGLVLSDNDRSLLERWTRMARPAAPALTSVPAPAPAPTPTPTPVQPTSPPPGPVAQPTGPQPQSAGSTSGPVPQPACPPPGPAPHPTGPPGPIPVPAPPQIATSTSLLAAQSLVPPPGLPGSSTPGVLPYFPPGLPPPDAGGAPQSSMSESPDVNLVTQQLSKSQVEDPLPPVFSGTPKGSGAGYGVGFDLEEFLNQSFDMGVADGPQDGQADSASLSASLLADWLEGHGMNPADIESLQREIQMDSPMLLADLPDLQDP
kinases in BCWM.1 cells (Homo sapiens, UniProt Q96RR4), sequence (Q96RR4 2-588 limits assumed): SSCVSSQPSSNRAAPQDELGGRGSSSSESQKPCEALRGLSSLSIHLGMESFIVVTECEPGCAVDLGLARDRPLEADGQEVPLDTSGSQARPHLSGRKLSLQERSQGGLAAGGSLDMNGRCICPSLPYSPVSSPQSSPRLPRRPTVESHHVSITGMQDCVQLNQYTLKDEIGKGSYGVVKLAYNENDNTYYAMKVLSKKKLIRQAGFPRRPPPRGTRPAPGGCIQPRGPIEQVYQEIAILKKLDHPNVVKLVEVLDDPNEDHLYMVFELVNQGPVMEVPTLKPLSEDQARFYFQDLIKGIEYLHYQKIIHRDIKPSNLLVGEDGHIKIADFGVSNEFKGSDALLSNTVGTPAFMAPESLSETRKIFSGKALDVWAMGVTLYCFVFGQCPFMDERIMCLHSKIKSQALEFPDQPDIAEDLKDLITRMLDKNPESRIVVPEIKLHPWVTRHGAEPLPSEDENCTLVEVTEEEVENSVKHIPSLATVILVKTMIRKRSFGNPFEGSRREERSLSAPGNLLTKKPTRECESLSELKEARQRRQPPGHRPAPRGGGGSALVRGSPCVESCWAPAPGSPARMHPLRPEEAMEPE
kinases in BCWM.1 cells (Homo sapiens, UniProt P09769), sequence (P09769 2-529 limits assumed): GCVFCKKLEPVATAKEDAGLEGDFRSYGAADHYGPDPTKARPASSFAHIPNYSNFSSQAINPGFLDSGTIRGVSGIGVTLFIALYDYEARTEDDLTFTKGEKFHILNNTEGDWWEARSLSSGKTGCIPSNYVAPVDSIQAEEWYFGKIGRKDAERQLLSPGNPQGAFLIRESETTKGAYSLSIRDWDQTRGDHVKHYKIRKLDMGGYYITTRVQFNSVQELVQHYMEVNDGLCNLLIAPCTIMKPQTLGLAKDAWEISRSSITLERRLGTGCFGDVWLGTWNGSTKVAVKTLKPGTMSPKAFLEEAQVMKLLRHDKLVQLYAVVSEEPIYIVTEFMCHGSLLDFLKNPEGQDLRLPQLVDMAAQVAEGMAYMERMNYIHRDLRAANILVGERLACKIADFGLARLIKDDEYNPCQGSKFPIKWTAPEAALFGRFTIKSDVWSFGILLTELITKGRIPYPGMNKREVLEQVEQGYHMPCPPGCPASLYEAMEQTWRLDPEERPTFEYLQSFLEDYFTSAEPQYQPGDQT
kinases in BCWM.1 cells (Homo sapiens, UniProt P06239), sequence (P06239 2-509 limits assumed): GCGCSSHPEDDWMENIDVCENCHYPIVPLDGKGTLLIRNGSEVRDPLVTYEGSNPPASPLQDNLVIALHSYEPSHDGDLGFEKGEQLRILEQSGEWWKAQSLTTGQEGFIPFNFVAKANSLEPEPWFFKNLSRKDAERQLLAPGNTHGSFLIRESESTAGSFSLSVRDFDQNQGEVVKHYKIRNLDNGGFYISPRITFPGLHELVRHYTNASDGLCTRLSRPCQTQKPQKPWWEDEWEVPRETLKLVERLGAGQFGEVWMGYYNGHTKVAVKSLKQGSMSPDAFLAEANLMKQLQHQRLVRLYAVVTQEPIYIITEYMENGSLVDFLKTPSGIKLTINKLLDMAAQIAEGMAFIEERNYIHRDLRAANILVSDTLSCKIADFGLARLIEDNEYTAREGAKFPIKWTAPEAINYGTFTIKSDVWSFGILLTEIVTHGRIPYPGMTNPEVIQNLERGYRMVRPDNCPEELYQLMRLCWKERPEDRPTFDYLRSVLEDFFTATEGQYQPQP
kinases in BCWM.1 cells (Homo sapiens, UniProt P78356), sequence (P78356 2-416 limits assumed): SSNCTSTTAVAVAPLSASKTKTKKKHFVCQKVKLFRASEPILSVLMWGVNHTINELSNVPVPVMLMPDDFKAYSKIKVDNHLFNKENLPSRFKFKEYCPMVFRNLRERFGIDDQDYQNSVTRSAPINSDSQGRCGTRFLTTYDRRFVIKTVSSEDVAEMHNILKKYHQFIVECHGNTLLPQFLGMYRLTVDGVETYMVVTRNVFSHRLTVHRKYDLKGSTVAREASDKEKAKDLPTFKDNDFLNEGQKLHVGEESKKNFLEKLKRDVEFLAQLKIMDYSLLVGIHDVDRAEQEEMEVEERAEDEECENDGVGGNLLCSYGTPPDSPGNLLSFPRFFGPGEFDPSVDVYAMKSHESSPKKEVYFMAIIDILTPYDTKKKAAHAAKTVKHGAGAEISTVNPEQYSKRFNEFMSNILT

SMILES: C=CC(=O)N1CC[C@H](Nc2nccc(Nc3ncc(C(=O)Nc4c(C)cccc4C)s3)n2)C1 [Example I-3]
- % change of MS signal compared to control sample (kinases in BCWM.1 cells [1]): 23.5%

SMILES: CCC(=O)N1CC[C@H](Nc2nccc(Nc3ncc(C(=O)Nc4c(C)cccc4C)s3)n2)C1 [Example I-9]
- % change of MS signal compared to control sample (kinases in BCWM.1 cells [2]): −1.8% and 1.1%
- % change of MS signal compared to control sample (kinases in BCWM.1 cells [3]): 15.8%
- % change of MS signal compared to control sample (kinases in BCWM.1 cells [4]): −12.2% and −10.2%
- % change of MS signal compared to control sample (kinases in BCWM.1 cells [5]): −13.2%
- % change of MS signal compared to control sample (kinases in BCWM.1 cells [6]): −11.2% and −3.9%
- % change of MS signal compared to control sample (kinases in BCWM.1 cells [7]): 24.1%
- % change of MS signal compared to control sample (kinases in BCWM.1 cells [8]): −26.4% and −21.7%
- % change of MS signal compared to control sample (kinases in BCWM.1 cells [9]): −13.4% and −5%
- % change of MS signal compared to control sample (kinases in BCWM.1 cells [10]): −1.5% and −6.6%
- % change of MS signal compared to control sample (kinases in BCWM.1 cells [11]): 26.2% and 15.2%
- % change of MS signal compared to control sample (kinases in BCWM.1 cells [12]): 2.5%
- % change of MS signal compared to control sample (kinases in BCWM.1 cells [13]): −19%
- % change of MS signal compared to control sample (kinases in BCWM.1 cells [14]): 84.7% and 72.1%
- % change of MS signal compared to control sample (kinases in BCWM.1 cells [15]): −37.3% and −40.3%
- % change of MS signal compared to control sample (kinases in BCWM.1 cells [16]): −23.6% and −22.7%
- % change of MS signal compared to control sample (kinases in BCWM.1 cells [17]): −25.1% and −16.8%
- % change of MS signal compared to control sample (kinases in BCWM.1 cells [18]): −3.8% and 4%
- % change of MS signal compared to control sample (kinases in BCWM.1 cells [19]): −4.9% and 0.5%
- % change of MS signal compared to control sample (kinases in BCWM.1 cells [20]): −3.2%
- % change of MS signal compared to control sample (kinases in BCWM.1 cells [21]): −19% and −10.3%
- % change of MS signal compared to control sample (kinases in BCWM.1 cells [22]): −27% and −18.7%
- % change of MS signal compared to control sample (kinases in BCWM.1 cells [23]): −22% and −18.5%
- % change of MS signal compared to control sample (kinases in BCWM.1 cells [24]): 61.6% and 82.8%
- % change of MS signal compared to control sample (kinases in BCWM.1 cells [25]): −1.1% and 7.7%
- % change of MS signal compared to control sample (kinases in BCWM.1 cells [26]): 16.8% and 16.3%
- % change of MS signal compared to control sample (kinases in BCWM.1 cells [27]): −1.9% and −1.4%
- % change of MS signal compared to control sample (kinases in BCWM.1 cells [28]): 2.3% and 1.9%
- % change of MS signal compared to control sample (kinases in BCWM.1 cells [29]): −13.7% and −19.7%
- % change of MS signal compared to control sample (kinases in BCWM.1 cells [30]; Lys1): −1.9% and 1.2%
- % change of MS signal compared to control sample (kinases in BCWM.1 cells [30]; Protein Kinase Domain): 24.5% and 12.4%
